Values quoted from earlier work as cited in patent publication US5221745A, “Psychotropic piperidinylmethyl benzodioxans” (American Home Products Corp., priority 1992, dated 1993).

Assays:
5-HT1A receptor = conditions: Fozard et al. 1987
[1] = target: T1, serotonin 5-HT1A receptor (Rattus norvegicus, UniProt P19327); conditions: standard for anxiolytic activity
T1 construct: following the procedure of Hall et al., J. Neurochem; 44, 1685 (1985); from tissue
T1 sequence (P19327 1-422): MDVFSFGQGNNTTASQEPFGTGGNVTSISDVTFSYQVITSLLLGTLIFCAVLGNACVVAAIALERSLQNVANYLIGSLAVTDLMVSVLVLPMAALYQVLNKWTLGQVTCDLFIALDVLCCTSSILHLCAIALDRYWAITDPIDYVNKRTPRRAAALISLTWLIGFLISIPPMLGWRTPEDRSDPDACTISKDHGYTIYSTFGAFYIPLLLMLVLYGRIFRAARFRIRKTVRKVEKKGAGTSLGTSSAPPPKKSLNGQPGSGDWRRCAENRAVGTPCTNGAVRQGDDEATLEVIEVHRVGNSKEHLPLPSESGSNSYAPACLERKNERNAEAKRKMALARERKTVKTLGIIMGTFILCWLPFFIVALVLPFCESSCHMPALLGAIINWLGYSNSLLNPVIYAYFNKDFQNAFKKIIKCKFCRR

Row | ligand character for 5-HT1A receptors (in words) (5-HT1A receptor) | SMILES | affinity for the 5-HT1A serotonin receptor subtype (in words) [1]
1 | selective and stereospecific | O=C1CC2(CCCC2)CC(=O)N1CCCCNCC1COc2ccccc2O1 (centres unmarked) [MDL 72832, 8-[4-(1,4-benzodioxan-2-ylmethylamino)butyl]-8-azaspiro[4.5]decane-7,9-dione] | –
2 | – | O=C1CC2(CCCC2)CC(=O)N1CCCCN1CCN(c2ncccn2)CC1 [buspirone] | potent affinity
